In patent publication US20050272784A1 (priority 2004, published 2005):

test system: type III protein secretion system of P. aeruginosa PA103 (ExoU secretion); assay: Tertiary assay: Type III-dependent secretion of ExoU by P. aeruginosa PA103; type: cell-based; details: Pseudomonas aeruginosa, ExoU secreted into extracellular medium
Text: Tertiary assay: inhibition of Type III protein secretion of effectors from a Pseudomonas aeruginosa system. Type III protein secretion is used by P. aeruginosa to secrete several essential virulence determinants. One effector of the type III protein secretion system of P. aeruginosa PA103 is the virulence determinants ExoU.
The amount of Type III-dependent secretion of ExoU by P. aeruginosa PA103 can be determined in a cell-based assay by quantification of the 73.9 kDa ExoU protein scereted into the extracellular medium. Such quantitation can be achieved by growing strain PA103 in a deferrated medium in the presence of nitrilotriacetic acid (an inducer of Type III protein secretion in P. aeruginosa) and either in the presence or absence of putative inhibitors. After a prolonged growth period, the cells are sedimented and the supernatants concentrated by ammonium sulfate precipitation. The proteins in the resuspended pellets are separated by electrophoresis on SDS-polyacrylamide gels. After staining gels with Colloidal Blue™, the 73.9 kDa ExoU band is quantitated by scanning through an imager. The effects of inhibitors on the intensity of the ExoU band may be measured relative to that of untreated controls.

| Structure (SMILES) | IC50 [µM] |
| --- | --- |
| O=C(N[C@@H](CSCc1ccccc1)C(=O)O)c1nc(-c2ccc(C(F)(F)F)cc2)oc1-c1ccc(OCc2ccccc2)cc1 [Compound 17, (R)-2-{[5-(4-Benzyloxyphenyl)-2-(4-trifluoromethylphenyl)oxazole-4-carbony]amino}-3-benzylsulfanylpropionic acid] | 34.3 |
| O=C(N[C@@H](COCc1ccccc1)C(=O)O)c1nc(-c2ccc(C(F)(F)F)cc2)oc1C#Cc1ccccc1 [Compound 10, (S)-3-Benzyloxy-2-{[5-phenylethynyl-2-(4-trifluoromethylphenyl)oxazole-4-carbonyl]amino}propionic acid] | 42.4 |
| Cc1nc(-c2ccc(-c3oc(-c4ccc(C(F)(F)F)cc4)nc3C(=O)N[C@H](Cc3ccc(Cl)cc3)C(=O)O)cc2)no1 [Compound 67, 3-(4-Chlorophenyl)-2-{[5-[4-(5-methyl[1,2,4]oxadiazol-3-yl)phenyl]-2-(4-trifluoromethylphenyl)oxazole-4-carbonyl]amino}propionic acid] | 12.5 |
| O=C(N[C@@H](CSCc1ccccc1)C(=O)O)c1nc(-c2ccc(C(F)(F)F)cc2)oc1-c1ccc(-c2ccccc2)nc1 [Compound 33, (R)-3-Benzylsulfanyl-2-{[5-(6-phenylpyridin-3-yl)-2-(4-trifluoromethylphenyl)oxazole-4-carbonyl]amino}propionic acid] | 48.9 |
| O=C(N[C@@H](COCc1ccccc1)C(=O)O)c1nc(-c2ccc(-c3ccccc3)cc2)oc1-c1ccc(Cl)cc1Cl [Compound 61, (S)-3-Benzyloxy-2-{[2-biphenyl-4-yl-5-(2,4-dichlorophenyl)oxazole-4-carbonyl]amino}propionic acid] | 66.1 |
| O=C(N[C@@H](Cc1ccc(Cl)cc1)C(=O)O)c1nc(-c2ccc(C(F)(F)F)cc2)oc1-c1ccc(-c2ccccc2)cc1 [Compound 73, (S)-2-{[5-Biphenyl-4-yl-2-(4-trifluoromethylphenyl)oxazole-4-carbonyl]amino}-3-(4-chlorophenyl)propionic acid] | 56.1 |
| O=C(N[C@@H](CSCc1ccccc1)C(=O)O)c1nc(-c2ccc(-c3ccccc3)cc2)oc1-c1cnc(Cl)c(Cl)c1 [Compound 43, (R)-3-Benzylsulfanyl-2-{[2-biphenyl-4-yl-5-(5,6-dichloropyridin-3-yl)oxazole-4-carbonyl]amino}propionic acid] | 45.7 |
| O=C(N[C@@H](COCc1ccccc1)C(=O)O)c1nc(-c2ccc(C(F)(F)F)cc2)oc1-c1ccc(Cl)nc1 [Compound 29, (S)-3-Benzyloxy-2-{[5-(6-chloropyridin-3-yl)-2-(4-trifluoromethylphenyl)oxazole-4-carbonyl]amino}propionic acid] | 73.4 |
| O=C(N[C@@H](CSCc1ccccc1)C(=O)O)c1nc(-c2ccc(C(F)(F)F)cc2)oc1-c1ccc(-c2ccc(F)cc2)nc1 [Compound 34, (R)-3-Benzylsulfanyl-2-{[5-[6-(4-fluorophenyl)pyridin-3-yl]-2-(4-trifluoromethylphenyl)oxazole-4-carbonyl]amino}propionic acid] | 47.4 |
| O=C(N[C@@H](CSCc1ccccc1)C(=O)O)c1nc(-c2ccc(C(F)(F)F)cc2)oc1-c1ccc(-c2ccccc2)cc1 [Compound 5, (R)-3-Benzylsulfanyl-2-{[5-biphenyl-4-yl-2-(4-trifluoromethylphenyl)oxazole-4-carbonyl]amino}propionic acid] | 12.5 |
| O=C(N[C@@H](COCc1ccccc1)C(=O)O)c1nc(-c2ccc(C(F)(F)F)cc2)oc1-c1cnc2ccccc2n1 [Compound 53, (S)-3-Benzyloxy-2-{[5-quinoxalin-2-yl-2-(4-trifluoromethylphenyl)oxazole-4-carbonyl]amino}propionic acid] | 64.6 |
| Cc1nc(-c2ccc(-c3oc(-c4ccc(C(F)(F)F)cc4)nc3C(=O)N[C@@H](COCc3ccccc3)C(=O)O)cc2)no1 [Compound 66, (S)-3-Benzyloxy-2-{[5-[4-(5-methyl[1,2,4]oxadiazol-3-yl)phenyl]-2-(4-trifluoromethylphenyl)oxazole-4-carbonyl]amino}propionic acid] | 12.5 |
| O=C(N[C@@H](COCc1ccccc1)C(=O)O)c1nc(-c2ccc(-c3ccccc3)cc2)nn1-c1ccc(Cl)c(Cl)c1 [Compound 68, (S)-3-Benzyloxy-2-{[5-biphenyl-4-yl-2-(3,4-dichlorophenyl)-2H-[1,2,4]triazole-3-carbonyl]amino}propionic acid] | 39.2 |
| O=C(N[C@@H](C[S+]([O-])Cc1ccccc1)C(=O)O)c1nc(-c2ccc(-c3ccccc3)cc2)nn1-c1ccc(Cl)c(Cl)c1 (stereo partly drawn) [Compound 70, (R)-2-{[5-Biphenyl-4-yl-2-(3,4-dichlorophenyl)-2H-[1,2,4]triazole-3-carbonyl]amino}-3-phenylmethanesulfinylpropionic acid] | 25.5 |
| O=C(N[C@@H](CSCc1ccccc1)C(=O)O)c1nc(-c2ccc(C(F)(F)F)cc2)oc1C#Cc1ccccc1 [Compound 9, (R)-3-Benzylsulfanyl-2-{[5-phenylethynyl-2-(4-trifluoromethylphenyl)oxazole-4-carbonyl]amino}propionic acid] | 26.7 |
| O=C(N[C@@H](COCc1ccccc1)C(=O)O)c1nc(-c2ccc(-c3ccccc3)cc2)oc1-c1cccc(C(F)(F)F)c1 [Compound 62, (S)-3-Benzyloxy-2-{[2-biphenyl-4-yl-5-(3-trifluoromethylphenyl)oxazole-4-carbonyl]amino}propionic acid] | 50.5 |
| O=C(N[C@H](Cc1ccc(Cl)cc1)C(=O)O)c1nc(-c2cccc3ccccc23)oc1-c1ccc(C(F)(F)F)nc1 [Compound 64, (R)-3-(4-Chlorophenyl)-2-{[2-naphthalen-1-yl-5-(6-trifluoromethylpyridin-3-yl)oxazole-4-carbonyl]amino}propionic acid] | 51.4 |
| O=C(N[C@@H](COCc1ccccc1)C(=O)O)c1nc(-c2ccc(C(F)(F)F)cc2)oc1-c1cc2ccccc2s1 [Compound 22, (S)-2-{[5-Benzo[b]thien-2-yl-2-(4-trifluoromethylphenyl)oxazole-4-carbonyl]amino}-3-benzyloxypropionic acid] | 82.4 |
| O=C(NC(Cc1ccc(Cl)cc1)C(=O)O)c1nc(-c2ccc(Oc3ccccc3)cc2)oc1-c1cnc(Cl)c(Cl)c1 (stereo not drawn) [Compound 41, 3-(4-Chlorophenyl)-2-{[5-(5,6-dichloropyridin-3-yl)-2-(4-phenoxyphenyl)oxazole-4-carbonyl]amino}propionic acid] | 51.6 |
| O=C(NC(Cc1ccc(Cl)cc1)C(=O)O)c1nc(-c2ccc(C(F)(F)F)cc2)oc1C1CCN(c2nccc(C(F)(F)F)n2)CC1 (stereo not drawn) [Compound 55, 3-(4-Chlorophenyl)-2-({2-(4-trifluoromethylphenyl)-5-[1-(4-trifluoromethylpyrimidin-2-yl)piperidin-4-yl]oxazole-4-carbonyl}amino)propionic acid] | 51.7 |

test system: SPI1 type III protein secretion system (SopE'-'Bla secretion); assay: Primary assay: Type III protein secretion of the chimeric SopE'-'Bla polypeptide by Salmonella enterica; type: cell-based; details: read-out: SopE IC50
Text: Primary assay: Type III protein secretion of the chimeric SopE′-'Bla polypeptide by Salmonella enterica. This procedure is a cell-based assay that measures the type III-dependent secretion by Salmonella enterica of a plasmid-encoded chimeric polypeptide whose synthesis can be regulated, and which is endowed with an enzymatic activity that can be monitored […] by hydrolysis of a substrate that is unable to penetrate into the bacterial cytoplasm within the time constraints of the reaction. Thus, the colorimetric reaction is not influenced by SopE′-'Bla polypeptide in the bacterial cytoplasm. Instead, it effectively measures the amount of polypeptide that has been secreted from the S. enterica cytoplasm to the extracellular medium via type III system protein secretion.
The SopE′-' Bla recombinant polypeptide consists of two functionally distinct domains spliced together. The N-terminus domain is encoded by a polynucleotide region specifying the signal for type III secretion of the SopE polypeptide of S. enterica, an effector of the SPI1 type III protein secretion system. The C-terminus domain of SopE′-'Bla consists of a 263 amino acid peptide sequence that corresponds to the TEM-1 β-lactamase expressed by plasmid pBR322 but without its N-terminal signal sequence. The TEM-1 β-lactamase part of the SopE′-'Bla chimeric polypeptide is used as a reporter enzyme. It is capable of hydrolyzing nitrocefin resulting in a product whose accumulation can be monitored by colorimetric detection. The secretion of the SopE′-'Bla chimeric polypeptide from the cytoplasm to the extracellular medium is dependent on type III protein secretion.
For this procedure, cells grown under conditions known to favor a functional SPI1 secretion system are induced for expression of the SopE′-'Bla protein and grown either in the presence or in the absence of putative inhibitors for determined time. Nitrocefin is then added to the various cultures and its hydrolysis are used for quantitation. An inhibitor of Type III protein secretion is generally a compound that reduces the signal of the enzymatic reaction by decreasing the amount of SopE′-'Bla secreted into the extracellular medium.

| Structure (SMILES) | IC50 [µM] |
| --- | --- |
| O=C(N[C@@H](Cc1ccc(Cl)cc1)C(=O)O)c1nc(-c2ccc(C(F)(F)F)cc2)oc1-c1ccc2ccccc2n1 [Compound 28, (S)-3-(4-Chlorophenyl)-2-{[5-quinolin-2-yl-2-(4-trifluoromethylphenyl)oxazole-4-carbonyl]amino}propionic acid] | 3.6 |
| O=C(N[C@@H](CSCc1ccccc1)C(=O)O)c1nc(-c2ccc(C(F)(F)F)cc2)oc1-c1ccc2ccccc2n1 [Compound 26, (R)-3-Benzylsulfanyl-2-{[5-quinolin-2-yl-2-(4-trifluoromethylphenyl)oxazole-4-carbonyl]amino}propionic acid] | 5.8 |
| O=C(N[C@@H](COCc1ccccc1)C(=O)O)c1nc(-c2ccc(C(F)(F)F)cc2)oc1C1CCN(c2nccc(C(F)(F)F)n2)CC1 [Compound 56] | 12 |
| O=C(N[C@@H](CSCc1ccccc1)C(=O)O)c1nc(-c2ccc(C(F)(F)F)cc2)oc1-c1ccc(-c2ccsc2)cc1 [Compound 20, (R)-3-Benzylsulfanyl-2-{[5-(4-thien-3-yl-phenyl)-2-(4-trifluoromethylphenyl)oxazole-4-carbonyl]amino}propionic acid] | 3.3 |
